Measured values from publication PMC11157491, “Novel Alaninamide Derivatives with Drug-like Potential for Development as Antiseizure and Antinociceptive Therapies—In Vitro and In Vivo Characterization” (ACS Chemical Neuroscience, 2024).

Experiments:
CYP2D6 = CYP2D6 (Homo sapiens, UniProt P10635); conditions: 1 μM
mice [1] = assay: Subcutaneous pentylenetetrazole (scPTZ) seizure test; type: in vivo; conditions: 100 mg/kg i.p.; for scPTZ: number of mice protected/number of mice tested: 0.5 h
Description: (§1) These parameters were then used to calculate the protective indexes (PIs, PI = TD50/ED50), which describe the therapeutics window of potential drug candidates. The ED50, TD50, and PI values for the tested compounds together with data of their chemical prototypes KA-11 and KJ-5 and reference ASMs are summarized in Table 2.
(§2) In the initial screening studies, four mice per group were randomly assigned to each experimental group (each mouse was used only once). To evaluate the ED50 or TD50 values, four groups consisting of eight animals were injected with various doses of tested compounds. The protective indexes (PIs) for the compounds investigated and reference ASMs were calculated by dividing the TD50 value, as determined in the chimney test, by the respective ED50 value, as determined in the MES, scPTZ, or 6 Hz (32 or 44 mA) tests (PI = TD50/ED50). The PIs are a measure of the potential therapeutic window of the tested agent.
(§3) All substances were suspended in Tween 80 (1% aqueous solution) and administered i.p. as a single injection at a dose of 10 mL/kg. On each day of experimentation, fresh solutions were prepared. The detailed in vivo procedures are described elsewhere: the maximal electroshock seizure test (MES),[60] the subcutaneous pentylenetetrazole seizure test (scPTZ),[61] the 6 Hz psychomotor seizure model (32 and 44 mA),[62] and the chimney test.[63] The reference ASMs were purchased from commercial suppliers: VPA (Sigma-Aldrich, St. Louis, MO), LCS, and LEV (UCB Pharma, Braine l’Alleud, Belgium).

mice [2] = assay: Grip strength test; type: in vivo; conditions: 50 mg/kg i.p., 30 min before test
Description: The grip strength test was performed just before the ivPTZ test to assess the acute effect of compounds 26 and 28 on neuromuscular strength.
In studies assessing the acute effect of compounds 26 and 28 on the ivPTZ seizure threshold and neuromuscular strength, the compounds were suspended in a 1% solution of Tween 80 and administered i.p., at a dose of 50 mg/kg of body weight, 30 min before the tests. The experimental procedures of the timed ivPTZ test and the grip strength test were described in detail elsewhere.[64]
Data from the ivPTZ test and the grip strength test were analyzed using Student’s t-test.
Figure S1. Acute effects of compound 26 (A) and 28 (B) on grip strength in mice. Both compounds were administered i.p. at a dose of 50 mg/kg, 30 min before the test. Control animals received vehicle. Data are presented as means ± SEM of grip strength expressed in mN/g of body weight (n = 10animals). The statistical significance was evaluated by a Student's t test (GraphPad Prism 8). […]
Behavioral tests were performed 24 h after the last PTZ injection. […] The statistical significance was evaluated by one-way ANOVA followed by the Tukey’s post hoc test: *p < 0.05, (GraphPad Prism 8). […]

[3] = PAMPA passive permeability; type: in vitro ADME; conditions: precoated PAMPA Plate System; for Papp: read-out: PAMPA—Pe ± SD
Description: The precoated parallel artificial membrane permeability assay (PAMPA) was used to determine the passive mechanism of permeability.

Na^+ channel (site 2) = assay: Na+ channel (site 2) radioligand binding; conditions: 100 μM, rat cerebral cortex
Description: Importantly, sodium or calcium conductance is often associated with the pathophysiology of epilepsy as well as neuropathic pain.[46]−[50] Therefore, both sodium and calcium ion channels are well-established molecular targets for structurally diverse ASMs such as LCS, lamotrigine, carbamazepine, oxcarbazepine, etc.[51] Consequently, we carried out binding and/or functional studies toward the sodium channel (site 2) and calcium Cav1.2 channel at high concentrations (100 μM) of 26 and 28 (Table 5). […] Next, 26 and 28 due to the presence of the phenylpiperazine moiety, which is a well-recognized pharmacophore for serotoninergic receptor (5-HTxR) ligands,[52] were evaluated for their influence on 5-HT2CR, where stimulation plays a key role for the antiseizure activity of lorcaserin (one of the newest ASMs).[6]
Binding/functional studies were carried out commercially in Eurofins Laboratories (Poitiers, France) and Eurofins Panlabs Discovery Services Taiwan, Ltd. (New Taipei City, Taiwan) using testing procedures that were reported previously (for details, see Table S2).
Table S2. Radioligand binding and functional assays. […]
Assays were performed commercially in Eurofins Laboratories ( Poitiers, France) or Eurofins Panlabs Discovery Services
Taiwan, Ltd. (New Taipei City, Taiwan).

CYP3A4 = CYP3A4 (Homo sapiens, UniProt P08684); conditions: 1 μM
Chain of CYP3A4 (P08684 whole entry): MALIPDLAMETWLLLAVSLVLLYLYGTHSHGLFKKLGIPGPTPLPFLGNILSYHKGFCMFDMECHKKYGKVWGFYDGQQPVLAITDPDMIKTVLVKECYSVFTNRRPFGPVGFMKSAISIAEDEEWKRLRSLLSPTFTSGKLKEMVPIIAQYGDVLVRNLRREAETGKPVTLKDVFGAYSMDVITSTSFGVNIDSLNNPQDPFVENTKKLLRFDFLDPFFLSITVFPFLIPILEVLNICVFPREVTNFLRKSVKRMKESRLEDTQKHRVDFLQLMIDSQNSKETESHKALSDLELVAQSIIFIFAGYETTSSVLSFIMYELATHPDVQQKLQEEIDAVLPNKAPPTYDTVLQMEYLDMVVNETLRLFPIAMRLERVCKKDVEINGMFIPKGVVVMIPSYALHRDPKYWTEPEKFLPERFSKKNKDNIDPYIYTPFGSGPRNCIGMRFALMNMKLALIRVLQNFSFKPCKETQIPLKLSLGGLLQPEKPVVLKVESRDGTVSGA

mice [4] = assay: Maximal electroshock (MES) seizure test; type: in vivo; conditions: for responders at 100 mg/kg / ED50: Mus musculus, ip; for responders at 100 mg/kg: read-out: MES: number of mice protected/number of mice tested (converted); for ED50: mice, pretreatment 0.5 h
Description: Identification and profiling of new ASM candidate compounds are still largely based on predictive animal models of seizures/epilepsy, while a range of in silico and in vitro approaches (i.e., molecular modeling or high throughput screening, etc.) are increasingly used in the early stages of ASM discovery.[31] The Epilepsy Therapy Screening Program (ETSP) of the National Institute of Neurological Disorders and Stroke (NIH, Bethesda, MD) has enabled the discovery of several approved ASMs by focusing on the in vivo testing of compounds synthesized by both academic laboratories and industry.[32] The ETSP provides a broad panel of seizure tests (ca. 30 rodent models), but a subset of them is used for the initial screening of new compounds with potential antiseizure activity. The routinely used seizure models include: (i) the MES test, which is an experimental model of tonic–clonic seizures, (ii) the 6 Hz model (32 mA) of focal seizures, and (iii) the scPTZ model of generalized absence or myoclonic seizures.[33],[34] Consequently, in the current studies, all final compounds 21–36 and 45–48 were initially studied in the MES and the 6 Hz (32 mA) seizure models after intraperitoneal (i.p.) administration at a screening dose of 100 mg/kg in mice at a time point of 0.5 h (the screening group consisted of four mice, and the results obtained are summarized in Table S1).
as §1
The adult male Albino Swiss mice weighed between 22 and 26 g were used in the in vivo studies. They were housed under standardized housing conditions in colony cages and had free access to food as well as tap water. The animals were left to adapt under laboratory conditions for 7 days. All procedures involving animals and their care were performed in accordance with the current European Community and Polish legislation on animal experimentation.
as §2, §3

Chain of CYP2D6 (P10635 whole entry): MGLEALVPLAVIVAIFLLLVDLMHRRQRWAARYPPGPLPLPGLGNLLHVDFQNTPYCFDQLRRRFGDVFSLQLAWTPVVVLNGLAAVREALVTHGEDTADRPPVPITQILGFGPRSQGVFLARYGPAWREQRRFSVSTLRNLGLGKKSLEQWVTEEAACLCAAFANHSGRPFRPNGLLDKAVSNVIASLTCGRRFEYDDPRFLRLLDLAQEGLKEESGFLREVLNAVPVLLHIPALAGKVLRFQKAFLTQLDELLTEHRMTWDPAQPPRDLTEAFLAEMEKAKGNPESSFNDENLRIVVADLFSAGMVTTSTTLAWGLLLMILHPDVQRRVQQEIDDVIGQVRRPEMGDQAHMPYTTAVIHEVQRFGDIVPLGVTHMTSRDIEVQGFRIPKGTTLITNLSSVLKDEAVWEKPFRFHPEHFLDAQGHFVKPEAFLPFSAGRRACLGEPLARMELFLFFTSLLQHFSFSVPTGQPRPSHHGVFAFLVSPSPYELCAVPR

Row | Structure (SMILES) | CYP2D6 activity (% of control ± SD) (CYP2D6) [%] | protection in scPTZ screening (mice [1]) [%] | scPTZ: number of mice protected/number of mice tested (mice [1]) | neuromuscular strength (grip strength) (mice [2]) | PAMPA—Pe ± SD [3] | Papp [3] [×10⁻⁶ cm/s] | % inhibition of control specific binding (Na^+ channel (site 2)) | CYP3A4 activity (% of control ± SD) (CYP3A4) [%] | antiseizure protection in MES screening (mice [4]; 100 mg/kg i.p., 0.5 h, four mice) [%] | responders at 100 mg/kg (mice [4]; 100 mg/kg i.p., 0.5 h) [%] | ED50 (mice [4]) [mg/kg]
1 | CC(=O)NC(C)C(=O)N1CCN(c2cccc(C(F)(F)F)c2)CC1 (stereo not drawn) [Compound 26, N-(1-oxo-1-(4-(3-(Trifluoromethyl)phenyl)piperazin-1-yl)propan-2-yl)acetamide] | 122.8 ± 11.7 | 25 | 1/4 | Neither compound 26 nor 28 (50 mg/kg) significantly affect | 4.51 10^–6 cm/s | 4.51 ± 0.61 | 4.5 (100) % | 114.1 ± 8.7 | 100 | 100 | 64.3
2 | CC(=O)NC(C)C(=O)N1CCN(c2cccc(OC(F)(F)F)c2)CC1 (stereo not drawn) [Compound 28, N-(1-oxo-1-(4-(3-(Trifluoromethoxy)phenyl)piperazin-1-yl)propan-2-yl)acetamide] | 115.0 ± 4.5 | 25 | 1/4 | Neither compound 26 nor 28 (50 mg/kg) significantly affect | 5.95 10^–6 cm/s | 5.95 ± 0.51 | –6.9 (100) % | 91.3 ± 12.7 | – | 100 | 34.9
